These results are taken from patent US20070026090A1, “Treatment and prevention of inflammatory disease and mitochondrial dysfunction with high dose selenium” (priority 2003, published 2007).

“Also recorded” adds a separate entry of the source. A value given as a limit tells only on which side of the number the result lay.

The conditions of data set [1]: mice, at 60 and 90 days; as selenocysteine; cited from earlier work.
Data set [2] is described as follows: Selenium incorporation into colon tissue (ICP-AES). Type of data set: in vivo, rat. On the procedure: Measurement of selenium incorporation into colon tissue: inductively coupled plasma (ICP) method: Colon tissue samples were prepared for analysis of selenium content by microwave-assisted digestion using an MLS 1200 mega microwave digestion unit [Milestone Sorisole (BG), Italy]. At the conclusion of the digestion period the vessels were allowed to cool down to room temperature and were uncapped. Liquid residues were taken up in water, transferred into 25-ml calibrated flasks and equilibrated to 25 ml volume with water. Analyses were conducted on portions of these solutions, versus multi-element selenium standards from Merck (Merck and Co, EMBD Biosciences, San Diego Calif.) in the same solvent. Selenium (Se) was determined by ICP-atomic emission spectrometry (AES) at 196.090 nm. An ICP-AES system, model “Spectroflame Modula E” from Spectro, Kleve, Germany was used with a cross-flow nebulizer. The power level was 1.2 kW, coolant flow 15 l/min, auxiliary flow 0.5 l/min and nebulizer flow 0.5 l/min. Observation height was 10 mm above the coil.

Data set [3] relates to myeloperoxidase (MPO) activity. The data set is described as follows: Tissue inflammation: myeloperoxidase activity in colon tissue. As to conditions: 24 h after TNBS; 16 ppm sodium selenite in drinking water, three weeks (FIG. 3 column D). Type of data set: in vivo, rat. How it is done: Tissue inflammation-Myeloperoxidase activity: Colonic tissue samples (approximately 100-120 mg) were collected 4 cm proximal to the anus. Each tissue sample was homogenized in a solution containing 0.5% hexa-decyl-trimethyl-ammonium bromide (HTAB) (Sigma-Aldrich Corp, St. Louis, Mo.) buffer (0.5% HTAB in 50 mM phosphate buffer, pH 6.0). Tissue samples were minced in a test tube containing 1 ml of HTAB buffer on ice and homogenized with a Polytron tissue homogenizer (Brinkmann Instruments, Inc, Westbury N.Y., USA). The pooled homogenates and washes were sonicated in water for 20 seconds. After three cycles of freeze-thawing, the sonicated samples were centrifuged in cold for 15 min. at 40,000×g. Myeloperoxidase activity (MPO) was assayed in the supernatant as described by Krawisz (Krawisz et al., 1984) after addition of O-dianizidine-HCl (Sigma-Aldrich Corp, St Louis, Mo.) and 0.15% (v/v) H2O2 as a substrate for the MPO. The rate of change in absorbance was measured spectrophotometrically at 460 nm, and is expressed as the amount of enzyme necessary to produce a change in absorbance of 1.0 unit per minute (1 unit) per gram wet weight tissue.

Data set [4] relates to glutathione peroxidase (GPx). Briefly: GPx activity in macrophage cell extract. As to conditions: 24 h; range 0.5-30 μM (FIG. 8B). Type of data set: cell-based, murine. How it is done:
(§1) Cell culture: Murine J774.2 macrophages (kindly provided by Prof. Dov Zipori from the Weizmann Institute of Science) were grown in RPMI medium supplemented with 10% (w/v) fetal calf serum, penicillin (100 U/ml), streptomycin (100 μg/ml) and 1× glutamine at 37° C. in a humidified atmosphere consisting of 95% air and 5% CO2. Experiments were performed on cells at 60% confluence.
GPx activity: GPx activity was determined by following the rate of NADPH oxidation at 340 nm in the presence of the substrates: 3 mM glutathione (GSH), 1.2 U glutathione reductase (GR) and 1.5% H2O2, using a microfluorometer plate reader (GENios, Tecan, Austria). The reaction contained 500 μl Tris reaction buffer (100 mM Tris Hcl, 300 mM Kcl, 5 mM EDTA, 1 mM NaN3, pH 7.0), substrates and 100 μl cell extract. Macrophages were treated with selenium for 24 h. Wells were washed twice with PBS, cells permeabilized, and scraped using 200 μl 0.2% Triton X-100. The reaction was recorded every minute for 25 minutes. Slopes were calculated and the results were adjusted according to the protein amount calculated with the Bradford reagent.

For another data set, the system named is MnSOD. The data set is described as follows: MnSOD transcription and expression (RTPCR, Western blot). Type of data set: cell-based, murine. Conditions: LPS + INFγ activated; 24 hours; range 0.5-5 μM (FIG. 11). How it is done: as §1
(§2) Western blots (Sp1, MnSOD, UCP2): Cells were grown in six-well tissue culture plates, treated with selenium for 72 h and activated with LPS and IFN-γ for 24 h. The wells were washed with PBS, scraped and centrifuged
(5 min. 2000 RPM), and lysed by addition of boiling hot lysis buffer (1% SDS, 1 mM sodium ortho-vanadate, 10 mM Tris pH 7.4) to the pellets. Protein content was measured (BIO RAD protein assay kit) and equalized. Sample buffer (containg SDS) was added and the samples were boiled. The samples were subjected to SDS-PAGE followed by western blot analysis. Separated proteins were transferred electrophoretically from the gel to a nitrocellulose membrane (Amersham International plc, Buckinghamshire, ENGLAND). The membrane was blocked in TBS (0.15 M NaCl/10 mM Tris/HCl, pH7.4) containing 5% (v/v) skimmed milk (Blotto), then incubated over night with primary antibodies at RT (diluted 1/2000 in blotto). After being washed six times in TBST [TBS containing 0.05% (v/v) Tween 20], the membrane was incubated for 2 h at room temperature with secondary antibody (diluted 1/5000 in blotto). Immunoreactive bands were detected with ECL western blotting detection reagents (Amersham Pharmacia Biotech, Buckingammshire England) and developed on film (Fuji super RX, Dusseldorf, Germany). […]
Right (antisense) 5′[…]-3′ (SEQ ID NO: 6) corresponding to nucleotides 622 to 640 of mouse mRNA region (GenBank Accession No. NM 013671). […] Actual PCR product was approximately 570 bp, measured on 1.25% agarose gel in TAE containing ethidium bromide.
(§3) PCR was performed with 28 cycles (25 cycles for GAPDH) of 30 seconds at 96° C., 30 seconds at 58° C. and 1 min at 72° C. RTPCR products were analyzed on 1.3% (w/v) agarose gels.
For orientation: In western blotting, separated proteins are transferred to a membrane and probed.

The subject of a further data set is UCP2. Briefly: UCP2 transcription and expression (RTPCR, Western blot). It is filed as cell-based, murine. How it is done:
as §1, §2
(5 min. 2000 RPM), and lysed by addition of boiling hot lysis buffer (1% SDS, 1 mM sodium ortho-vanadate, 10 mM Tris pH 7.4) to the pellets. Protein content was measured (BIO RAD protein assay kit) and equalized. Sample buffer (containg SDS) was added and the samples were boiled. The samples were subjected to SDS-PAGE followed by western blot analysis. Separated proteins were transferred electrophoretically from the gel to a nitrocellulose membrane (Amersham International plc, Buckinghamshire, ENGLAND). The membrane was blocked in TBS (0.15 M NaCl/10 mM Tris/HCl, pH7.4) containing 5% (v/v) skimmed milk (Blotto), then incubated over night with primary antibodies at RT (diluted 1/2000 in blotto). After being washed six times in TBST [TBS containing 0.05% (v/v) Tween 20], the membrane was incubated for 2 h at room temperature with secondary antibody (diluted 1/5000 in blotto). Immunoreactive bands were detected with ECL western blotting detection reagents (Amersham Pharmacia Biotech, Buckingammshire England) and developed on film (Fuji super RX, Dusseldorf, Germany). Primary antibodies for Sp1 and MnSOD were from BD Transduction Laboratories (Becton Dickenson and Co., San Jose, Calif. USA) and for UCP2 from Alpha Diagnostics LTD (Warszaw, Poland). Secondary antibodies were from Jackson ImmunoResearch (Jackson Labs, Bar Harbor, Maine, USA).
Reverse transcriptase-PCR (RTPCR): Total RNA was prepared and isolated by the Tri-Reagent method according to the manufacturer's protocol (Sigma, St. Louis Mo., USA). Total RNA (1 μg) was converted into cDNA using Reverse-iT first strand synthesis kit (Abgene, UK). Amplification of MnSOD and UCP2 sequences was performed by incubating 10 ng equivalents of DNA with the following oligonucleotide primers:
Left (sense), 5′-[…]-3′ (SEQ ID NO:7) corresponding to nucleotides 372 to 392 of mouse mRNA (GenBank Accession No. NM 011671).
Right (antisense) 5′[…]-3′ (SEQ ID NO: 8) corresponding to nucleotides 826 to 846 of mouse mRNA (GenBank Accession No. NM 011671). The expected PCR product was 474 bp. Actual PCR product was approximately 474 bp, measured on 1.25% agarose gel in TAE containing ethidium bromide.
as §3

Data set [5] can be described thus: Cell viability (PI exclusion, flow cytometry). Type of data set: cell-based, murine. Conditions: mouse, 10 μM during or after activation (FIGS. 14A, 14B); read-out: decrease in cell viability, activated and inactivated cells. On the procedure: Experiments were performed on cells at 60% confluence.
Determination of cell viability: Cell-membrane integrity was detected by flow cytometer (FACSort, Becton Dickenson and Co., San Jose, Calif. USA) as a measurement of cell viability. For this assay, the nonpermeant DNA-intercalating dye propidium iodide (PI), which is excluded by viable cells, was used. Fluorescence settings were excitation at 488 nm and emission at 575 nm. Data were collected from at least 10,000 cells.

For data set [6] the following is noted: mice and rats; up to 0.8 mg/kg body weight selenium; cited from earlier work.
The next data set has as its system AOM-induced colon cancer. Conditions: up to 5.4 ppm in water; cited from earlier work.
The subject of data set [7] is Electron Transport Chain (complex 1). The data set is described as follows: Oxygen consumption of fresh colon tissue with rotenone. Conditions: healthy rat colon tissue; 20 μg/ml rotenone (FIG. 4). How it is done: Mitochondrial respiration activity in colon tissue: Mitochondrial respiration was measured by direct assessment of oxygen consumption of the tissue. Briefly, colons were removed, chilled on ice, and washed extensively with cold PBS. Colon tissue samples (5-10 mm in width, 100 mg) were incubated at ambient temperature in PBS supplemented with 5 mM glucose. Oxygen consumption was measured polarographically using a computerized Clark-type oxygen electrode. The addition of the Electron Transport Chain (complex 1) inhibitor rotenone was used to determine whether the majority of oxygen consumption measured in the colon samples was mitochondrial respiration-dependent.

`N[C@@H](C[SeH])C(=O)O` [selenocysteine]: the “dietary supplementation at which toxicity was observed” value in [1] was “greater than 10 mg selenium per kg body weight per day”.
Consider `O=[Se](O)O` [sodium selenite], for which the “increase in colon tissue selenium levels compared with healthy rats” value in data set [2] (colitis-induced rats, 24 h after TNBS, 16 ppm in water, three weeks (FIG. 1 C and D)) was “greater”. Further, the “colon tissue selenium vs untreated controls” value in data set [2] (healthy and colitis rats (columns B and D vs A and C), 16 ppm in drinking water, three weeks) is recorded as “enhanced levels”. Moreover, in [3], the “protection against TNBS-induced inflammation (MPO activity)” value is reported as over 80%. In addition, in [4], the “concentration of maximum stimulation of GPx activity” value turned out to be 0.5 µM. Also, the “lowest concentration effective in reducing MnSOD expression, activated macrophages” value in the data set with MnSOD is 1 µM. In addition, the “lowest concentration giving a significant decrease in UCP2 transcripts” value in the data set on UCP2 (24 and 72 hours (FIG. 10A)) came out at 5 µM. The “reduction in detectable UCP2 protein” value in the data set with UCP2 (24 hours at 30 μM (FIG. 10B)) is “greater than 50%”. For the same compound, the “lowest concentration effective in reducing UCP2 expression, activated macrophages” value with UCP2 (LPS + INFγ activated, 24 hours, range 0.5-5 μM (FIG. 11)) worked out at 1 µM. For the same compound, in [5], the cytotoxicity at 10 μM is at most 60%. Further, in data set [6], the “adverse effects of long term supplementation” value is “no observable adverse effects”.
Consider `C[Se]CC[C@H](N)C(=O)O` [selenomethionine], for which the anti-cancer treatment effect entry in the data set on AOM-induced colon cancer is recorded as “ineffective”.
On to `C=C(C)[C@H]1Cc2c(ccc3c2O[C@@H]2COc4cc(OC)c(OC)cc4[C@@H]2C3=O)O1` [rotenone], for which the “respiration (O2 consumption) of colon tissue” value in [7] was “strongly inhibited; also recorded: significantly reduced”.
